Experimental findings from patent US20140024677A1, “METHODS FOR INDUCING MITOCHONDRIAL BIOGENESIS” (MUSC Foundation For Research Development, priority 2012, published 2014) are described below.

The test system of test [1] is gastrocnemius muscle. Description: Dexamethasone-induced muscle wasting, gastrocnemius weight. It counts as in vivo, Mice.
Description: On the 8th day, gastrocnemius muscle was isolated from both the hind limbs and weighed. The average weights were normalized to initial body weights.
The subject of test [2] is mtDNA in kidney cortex. Description: mtDNA copy number in kidney of dosed mice (D-loop/apoB). It counts as in vivo, C57BL/6 mice. To be noted: 72 h after daily repeated i.p. injection with 100 mg/kg (so in the source). The text has this:
(§1) Mitochondrial DNA Content.

Test [3] relates to renal mitochondria. To be noted: treatment after I/R injury.
Description: Mitochondrial function was measured ex vivo by isolating renal mitochondria and determining state 4 (basal respiration) and state 3 (ADP-stimulated respiratory rate).
The subject of test [4] is I/R induced AKI. Particulars: after five doses started 24 h after I/R injury; 144 h.
Description: Assessing renal function. For mice, blood was collected by retro-orbital eye bleed 24 h and 144 h. Creatinine levels were measured using a Quantichrom Creatinine Assay Kit (BioAssay Systems, Hayward, Calif.) according to the manufacturer's protocol.
The test system of test [5] is mtDNA in heart. Description: mtDNA copy number in heart of dosed mice (D-loop/apoB). It counts as in vivo, C57BL/6 mice.
Description: as §1

For test [6], the system named is KIM-1, PGC-1α, COX I, NDUFB8 in renal cortical tissue. The procedure: I/R model of AKI. Eight-week-old male C57BL6 mice weighing 25-30 g were subjected to bilateral renal pedicle ligation. Briefly, renal artery and vein were isolated and blood flow was occluded with a vascular clamp for 20 min, and mice were euthanized at 24, 72, or 144 h after procedure, at which time kidneys were harvested for molecular analysis. All procedures involving animals were performed with approval from the IACUC in accordance with the NIH Guide for the Care and Use of Laboratory Animals.
Immunoblot analysis. Renal cortical tissue was lysed in RIPA buffer containing cocktail protease and phosphatase inhibitors. Total protein content was measured by the BCA assay. Fifty micrograms of total protein were loaded into SDS-PAGE gels and immunoblots were performed as previously described (26). Antibodies used for immunoblot studies were obtained from the following vendors: caspase 3 (Enzo Life Sciences), GAPDH (Fitzgerald Antibodies), COX I and NDUFB8 (MitoSciences), KIM-1 (R&D Systems), and PGC-1α (Calbiochem).
mRNA analysis. Total RNA was isolated from renal cortical tissue with TRIzol (Invitrogen) according to the manufacturer's protocol and cDNA was synthesized using RevertAid First Strand cDNA Synthesis Kit (Fermentas). PCR reactions were performed using 3:1 diluted cDNA product. Primers sequences for NDUFB8 and COX I were used.
Previous in vivo and in vitro research has identified depletion of mitochondrial function and abundance in models of hypoxia correlated with dysfunctional kidney function.

In test [7] the test system is adult feline cardiomyocytes (AFC). It counts as cell-based. Particulars: 24 hr, formoterol 10 and 30 nM.
Description: Respirometry assay. […] Each experimental plate was treated with vehicle controls (DMSO<0.5%), a positive control (SRT1720, 10 μM), blank controls, and the appropriate concentration of the compound of interest. The XF-96 protocol consists of five measurements of basal OCR (1 measurement/1.5 min), injection of FCCP (0.5 μM), and three measurements of uncoupled OCR (1 measurement/1.5 min). […] Quality control evaluations considered the basal and uncoupled rates of the vehicle control, positive control, and variances between duplicate treatment wells. […] This threshold is ≧1 S.D. above the historic mean for the vehicle control.

On to “(3R)-N-methyl-3-(2-methylphenoxy)-3-phenylpropan-1-amine [Tomoxetine]”, for which the “Gastrocnemius muscle weight in DEX-treated mice” value in test [1] (co-injected with dexamethasone 25 mg/kg i.p. for 7 days, formoterol 100/300 ug/Kg i.p., atomoxetine 100 ug/kg i.p.) is listed as “restored atrophied muscle back to normal”.

`COc1ccc(C[C@@H](C)NC[C@H](O)c2ccc(O)c(NC=O)c2)cc1` (racemic) [formoterol, rac-(R,R)—N-[2-hydroxy-5-[1-hydroxy-2-[1-(4-methoxyphenyl)propan-2-ylamino]ethyl]phenyl]formamide]: in test [2], the “mtDNA copy number increase, kidney cortex” value was determined as 2 fold. Also, in test [3], the “Mitochondrial respiration of isolated renal mitochondria (basal and state 3)” value is given as “completely restore”. Besides, the “Serum creatinine (SCr)” value in test [4] came to 0.29 mg/dL. For the same molecule, in test [5] (24 h, i.p. 100 mg/kg (so in the source)), the “mtDNA copy number increase (FIG. 3C, heart figure)” value is listed as 2 fold. The “mtDNA copy number increase (FIG. 3C, heart figure)” value in test [5] (72 h, daily repeated i.p. 100 mg/kg (so in the source)) was 2.5 fold. The KIM-1 protein expression entry in test [6] (144 h post I/R injury) is listed as “to the level of sham vehicle”. Besides, in test [6] (sham animals exposed to formoterol vs control animals), the “Gene transcription and protein translation in sham animals” value was “not significantly altered”. In addition, in test [6] (treatment after I/R, 144 h), the “COX I gene expression” value is listed as “restored with treatment of formoterol after I/R, but not significantly different than the I/R vehicle group”; the “COX I protein expression” value is “significantly above the I/R vehicle group”; the NDUFB8 gene transcription entry is “did not restore”; the NDUFB8 protein expression entry is given as “significantly above the I/R vehicle group”. Besides, the “Total PGC-1α gene expression” value in test [6] (treatment from 24 h post I/R injury, 144 h) is recorded as “significantly above the I/R vehicle group, but not fully restored to control levels”.

Take `C[C@H](Cc1ccc(OCC(=O)O)cc1)NC[C@H](O)c1cccc(Cl)c1.O.[Na]` (relative stereo) [BRL 37344, (±)-(R*,R*)-[4-[2-[[2-(3-Chlorophenyl)-2-hydroxyethyl]amino]propyl]phenoxy]acetic acid sodium hydrate]: the “Change in FCCP-uncoupled OCR” value in test [7] was “did not have any significant effects”.

Take `CC(C)NC[C@H](O)c1ccc(O)c(O)c1.Cl` [isoproterenol, (R)-3,4-Dihydroxy-α-(isopropylaminomethyl)benzyl alcohol hydrochloride]: in test [7], the “Change in FCCP-uncoupled OCR” value is listed as “did not have any significant effects”.

With `C[C@@H]1C[C@H]2[C@@H]3CCC4=CC(=O)C=C[C@]4(C)[C@@]3(F)[C@@H](O)C[C@]2(C)[C@@]1(O)C(=O)CO` [DEX, dexamethasone], in test [1] (25 mg/kg i.p., 7 days, weight normalized to initial body weight), the “Decrease in gastrocnemius wt. compared to saline controls” value is 15%.
